The values that follow come from patent publication US9682955B2, “Quinazoline derivatives useful as CB-1 inverse agonists” (Janssen Pharmaceutica NV, priority 2014, dated 2017).

Assay [1] deals with Human CB2R (Cannabanoid receptor 2) (Homo sapiens (Human), UniProt P34972). Kind of assay: CB-2 in vitro cAMP assay (HTRF). The assay is classed as cell-based. The settings on record: mean where tested more than once. The method in brief:
(§1)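 HEK-293 cells stably transfected with the human receptor, plated overnight at 4E5 cells/mL. Compounds given as 1/3 serial dilutions from 10 mM DMSO stocks. Stimulation in HBSS/5 mM HEPES/0.1% BSA with 0.5 mM IBMX and forskolin (1.5 μM in buffer); cAMP measured by competitive HTRF immunoassay (d2-cAMP, cryptate anti-cAMP) against a cAMP standard curve.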
(cAMP levels reflect the balance of adenylyl cyclase and phosphodiesterase activity.)

Assay [2] deals with Human CB1R (Cannabanoid receptor 1) (Homo sapiens (Human), UniProt P21554). Nature of the assay: CB-1 in vitro cAMP assay (HTRF). The assay is classed as cell-based. The note with it: mean where tested more than once. A digest of the protocol:
as §1

Chain of Human CB1R (Cannabanoid receptor 1) (P21554 whole entry): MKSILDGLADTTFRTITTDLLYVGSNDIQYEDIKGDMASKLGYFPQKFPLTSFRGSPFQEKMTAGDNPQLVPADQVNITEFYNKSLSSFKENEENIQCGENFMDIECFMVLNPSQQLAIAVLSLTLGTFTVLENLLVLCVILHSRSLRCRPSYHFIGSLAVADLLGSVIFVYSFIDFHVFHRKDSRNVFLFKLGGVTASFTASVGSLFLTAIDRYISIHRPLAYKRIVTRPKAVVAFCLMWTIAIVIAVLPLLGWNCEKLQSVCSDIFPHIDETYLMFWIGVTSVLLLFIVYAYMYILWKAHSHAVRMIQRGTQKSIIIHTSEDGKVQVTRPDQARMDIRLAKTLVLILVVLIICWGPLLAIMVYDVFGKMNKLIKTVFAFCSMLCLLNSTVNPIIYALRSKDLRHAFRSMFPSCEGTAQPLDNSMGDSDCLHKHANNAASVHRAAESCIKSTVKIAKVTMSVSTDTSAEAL
Chain of Human CB2R (Cannabanoid receptor 2) (P34972 whole entry): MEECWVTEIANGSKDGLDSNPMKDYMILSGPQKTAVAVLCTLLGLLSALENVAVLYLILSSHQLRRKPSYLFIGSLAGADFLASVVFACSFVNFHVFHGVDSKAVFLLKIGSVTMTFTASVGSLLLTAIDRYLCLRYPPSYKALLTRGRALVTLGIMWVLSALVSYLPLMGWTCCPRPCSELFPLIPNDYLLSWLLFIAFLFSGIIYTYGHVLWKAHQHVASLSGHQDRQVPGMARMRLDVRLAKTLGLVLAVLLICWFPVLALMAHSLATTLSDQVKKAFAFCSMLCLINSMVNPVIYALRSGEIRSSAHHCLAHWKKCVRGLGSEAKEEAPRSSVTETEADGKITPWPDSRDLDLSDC

As a reminder, the EC50 is the concentration giving half of the maximal effect. A high value points to weaker potency. On to `COC(=O)c1ccc(N2CCC(Nc3ncnc4ccc(C(c5ccc(Cl)cc5)c5ccc(Cl)cc5)cc34)CC2)cc1` [Compound #94, methyl 4-(4-((6-(bis(4-chlorophenyl)methyl)quinazolin-4-yl)amino)piperidin-1-yl)benzoate], for which the concentration for a half-maximal effect (EC50) in assay [1] came to 68 nM; in assay [2], 4 nM.
On to `NC(=O)CS(=O)(=O)N1CCC(Nc2ncnc3ccc(C(c4ccc(Cl)cc4)c4ccc(Cl)cc4)cc23)CC1` [Compound #98, 2-((4-((6-(bis(4-chlorophenyl)methyl)quinazolin-4-yl)amino)piperidin-1-yl)sulfonyl)acetamide], for which the EC50 came to 7900 nM in assay [1] and 232 nM in assay [2].
As to `OC1(c2ccccc2)CCC(Nc2ncnc3ccc(C(c4ccc(Cl)cc4)c4ccc(Cl)cc4)cc23)CC1` (stereo not drawn) [Compound #99, 4-((6-(bis(4-chlorophenyl)methyl)quinazolin-4-yl)amino)-1-phenylcyclohexanol], the results for the EC50 in assay [1] and in assay [2] were 8490 nM and 1 nM, respectively.
In the case of `CS(=O)(=O)Nc1nc(NC2CCN(S(=O)(=O)C(F)(F)F)CC2)c2cc(C(c3ccc(Cl)cc3)c3ccc(Cl)cc3)ccc2n1` [Compound #100, N-(6-(bis(4-chlorophenyl)methyl)-4-((1-((trifluoromethyl)sulfonyl)piperidin-4-yl)amino)quinazolin-2-yl)methanesulfonamide], the values for the EC50 in assay [1] and in assay [2] were over 10000 nM and 432 nM, respectively.
Regarding `O=C1CC(Nc2ncnc3ccc(C(c4ccc(Cl)cc4)c4ccc(Cl)cc4)cc23)CCN1c1ccccc1` (stereo not drawn) [Compound #102, 4-((6-(bis(4-chlorophenyl)methyl)quinazolin-4-yl)amino)-1-phenylpiperidin-2-one], the EC50 is over 10000 nM in assay [1] and 10 nM in assay [2].
For `COc1nc(NC2CCN(S(=O)(=O)C(F)(F)F)CC2)c2cc(C(c3ccc(Cl)cc3)c3ccc(Cl)cc3)ccc2n1` [Compound #103, 6-(bis(4-chlorophenyl)methyl)-2-methoxy-N-(1-((trifluoromethyl)sulfonyl)piperidin-4-yl)quinazolin-4-amine] the same measures were over 10000 nM and 4 nM.
For `O=S(=O)(NC1CCN(c2ncnc3ccc(C(c4ccc(Cl)cc4)c4ccc(Cl)cc4)cc23)CC1)C(F)(F)F` [Compound #104, N-(1-(6-(bis(4-chlorophenyl)methyl)quinazolin-4-yl)piperidin-4-yl)-1,1,1-trifluoromethanesulfonamide], the results for the EC50 in assay [1] and in assay [2] were over 10000 nM and 68 nM, respectively.
In the case of `CC(=O)Nc1nc(NC2CCN(S(=O)(=O)C(F)(F)F)CC2)c2cc(C(c3ccc(Cl)cc3)c3ccc(Cl)cc3)ccc2n1` [Compound #106, N-(6-(bis(4-chlorophenyl)methyl)-4-((1-((trifluoromethyl)sulfonyl)piperidin-4-yl)amino)quinazolin-2-yl)acetamide], the values for the EC50 in assay [1] and in assay [2] were 5700 nM and 70 nM, respectively.
For `Nc1nc(NC2CCN(S(=O)(=O)C(F)(F)F)CC2)c2cc(C(c3ccc(Cl)cc3)c3ccc(Cl)cc3)ccc2n1` [Compound #107, 6-(bis(4-chlorophenyl)methyl)-N4-(1-((trifluoromethyl)sulfonyl)piperidin-4-yl)quinazoline-2,4-diamine] the same measures were over 10000 nM and 75 nM.
As for `O=S(=O)(N1CCC(Nc2nc(C3CC3)nc3ccc(C(c4ccc(Cl)cc4)c4ccc(Cl)cc4)cc23)CC1)C(F)(F)F` [Compound #108, 6-(bis(4-chlorophenyl)methyl)-2-cyclopropyl-N-(1-((trifluoromethyl)sulfonyl)piperidin-4-yl)quinazolin-4-amine], the values for the EC50 in assay [1] and in assay [2] were over 10000 nM and 8 nM, respectively.
On to `COC(=O)CS(=O)(=O)N1CCC(Nc2ncnc3ccc(C(c4ccc(Cl)cc4)c4ccc(Cl)cc4)cc23)CC1` [Compound #110, Methyl 2-((4-((6-(bis(4-chlorophenyl)methyl)quinazolin-4-yl)amino)piperidin-1-yl)sulfonyl)acetate], for which the results for the EC50 in assay [1] and in assay [2] were 3220 nM and 41 nM, respectively.
Regarding `CNc1nc(NC2CCN(S(=O)(=O)C(F)(F)F)CC2)c2cc(C(c3ccc(Cl)cc3)c3ccc(Cl)cc3)ccc2n1` [Compound #113, 6-(bis(4-chlorophenyl)methyl)-N2-methyl-N4-(1-((trifluoromethyl)sulfonyl)piperidin-4-yl)quinazoline-2,4-diamine], the EC50 in assay [1] is over 10000 nM; in assay [2] it was 254 nM.
For the compound `O=S(=O)(N1CCC(Nc2nc(O)nc3ccc(C(c4ccc(Cl)cc4)c4ccc(Cl)cc4)cc23)CC1)C(F)(F)F` [Compound #114, 6-(bis(4-chlorophenyl)methyl)-4-((1-((trifluoromethyl)sulfonyl)piperidin-4-yl)amino)quinazolin-2-ol], the concentration giving a half-maximal response (EC50) in assay [1] worked out at 5690 nM; in assay [2], 32 nM.
For the compound `N#CC1(c2ccccc2)CCC(Nc2ncnc3ccc(C(c4ccc(Cl)cc4)c4ccc(Cl)cc4)cc23)CC1` (stereo not drawn) [Compound #118, 4-((6-(bis(4-chlorophenyl)methyl)quinazolin-4-yl)amino)-1-phenylcyclohexanecarbonitrile], the 50% effective concentration (EC50) in assay [1] came to 196 nM; in assay [2], 11 nM.
Consider `O=S(=O)(N1CCCC1)N1CCC(Nc2ncnc3ccc(C(c4ccc(Cl)cc4)c4ccc(Cl)cc4)cc23)CC1` [Compound #120, 6-(bis(4-chlorophenyl)methyl)-N-(1-(pyrrolidin-1-ylsulfonyl)piperidin-4-yl)quinazolin-4-amine], for which the EC50 in assay [1] was 2150 nM; in assay [2], 4 nM.
In the case of `FC(F)(F)c1ccc(Nc2ncnc3ccc(C(c4ccc(Cl)cc4)c4ccc(Cl)cc4)cc23)cc1Cl` [Compound #122, 6-(bis(4-chlorophenyl)methyl)-N-(3-chloro-4-(trifluoromethyl)phenyl)quinazolin-4-amine], the EC50 in assay [1] was over 10000 nM; in assay [2], 52 nM.
For the compound `FC(F)(F)CN1CCC(Nc2ncnc3ccc(C(c4ccc(Cl)cc4)c4ccc(Cl)cc4)cc23)CC1` [Compound #123, 6-(bis(4-chlorophenyl)methyl)-N-(1-(2,2,2-trifluoroethyl)piperidin-4-yl)quinazolin-4-amine], the EC50 stood at 490 nM in assay [1] and 2 nM in assay [2].
For `Clc1ccc(C(c2ccc(Cl)cc2)c2ccc3ncnc(NC4CCN(c5ccccn5)CC4)c3c2)cc1` [Compound #130, 6-(bis(4-chlorophenyl)methyl)-N-(1-(pyridin-2-yl)piperidin-4-yl)quinazolin-4-amine] the same measures were 154 nM and 2 nM.
`CN(Cc1ccc(C(F)(F)F)cc1)c1ncnc2ccc(C(c3ccc(Cl)cc3)c3ccc(Cl)cc3)cc12` [Compound #132, 6-(bis(4-chlorophenyl)methyl)-N-methyl-N-(4-(trifluoromethyl)benzyl)quinazolin-4-amine]: the values for the 50% effective concentration (EC50) in assay [1] and in assay [2] were over 14000 nM and 173 nM, respectively.
For the compound `O=C(CC(F)(F)F)N1CCC(Nc2ncnc3ccc(C(c4ccc(Cl)cc4)c4ccc(Cl)cc4)cc23)CC1` [Compound #133, 1-(4-((6-(bis(4-chlorophenyl)methyl)quinazolin-4-yl)amino)piperidin-1-yl)-3,3,3-trifluoropropan-1-one], the EC50 was determined as 2210 nM in assay [1] and 7 nM in assay [2].
As to `O=S(=O)(c1ccc(Nc2ncnc3ccc(C(c4ccc(Cl)cc4)c4ccc(Cl)cc4)cc23)cc1)C(F)(F)F` [Compound #134, 6-(bis(4-chlorophenyl)methyl)-N-(4-((trifluoromethyl)sulfonyl)phenyl)quinazolin-4-amine], the EC50 in assay [1] is over 10000 nM; in assay [2] it was 194 nM.
